# ChEMBL document CHEMBL1201862, “PubChem BioAssay data set” (2004)
#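 Tested at 5 concentrations; 48 h exposure; 96-well plates; endpoints linearly interpolated, else capped at highest concentration. GI50 = concentration required for 50% inhibition of growth.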 Activity calls are given as the source filed them. Rule as the data show it: active = GI50 up to about 1.1 µM and inactive = higher.
# Tests used:
# Assay in all cases: inhibition of tumour cell growth, NCI panel, 48 h
# A549 = system: A549
# 786-0 = system: 786-0
# SK-MEL-2 = system: SK-MEL-2
# LXFL 529 = system: LXFL 529
# SF-295 = system: SF-295
# SK-MEL-28 = system: SK-MEL-28
# HL-60 = system: HL-60
# TK-10 = system: TK-10
# SF-539 = system: SF-539
# OVCAR-4 = system: OVCAR-4
# M14 = system: M14
# MOLT-4 = system: MOLT-4
# SN12C = system: SN12C
# SNB-19 = system: SNB-19
# K562 = system: K562
# UO-31 = system: UO-31
# HOP-92 = system: HOP-92
# MDA-N = system: MDA-N
# MCF7 = system: MCF7
# T47D = system: T47D
SMILES,GI50 (A549),GI50 (786-0),GI50 (SK-MEL-2),GI50 (LXFL 529),GI50 (SF-295),GI50 (SK-MEL-28),GI50 (HL-60),GI50 (TK-10),GI50 (SF-539),GI50 (OVCAR-4),GI50 (M14),GI50 (MOLT-4),GI50 (SN12C),GI50 (SNB-19),GI50 (K562),GI50 (UO-31),GI50 (HOP-92),GI50 (MDA-N),GI50 (MCF7),GI50 (T47D)
CNC(=S)OCCC(C)CCCC(C)C (stereo not given),16.3 µM (inactive),17.2 µM (inactive),13.7 µM (inactive),15.8 µM (inactive),21.5 µM (inactive),24.7 µM (inactive),6.84 µM (inactive),12.8 µM (inactive),16.8 µM (inactive),16.7 µM (inactive),18.6 µM (inactive),11.2 µM (inactive),16.3 µM (inactive),16.9 µM (inactive),13.7 µM (inactive),7.16 µM (inactive),,,,
CC(=O)OC1COC(N2CCc3cc([N+](=O)[O-])ccc32)C(OC(C)=O)C1OC(C)=O (stereo not given),> 100 µM (inactive),> 100 µM (inactive),> 100 µM (inactive),> 100 µM (inactive),> 100 µM (inactive),> 100 µM (inactive),,> 100 µM (inactive),> 100 µM (inactive),> 100 µM (inactive),> 100 µM (inactive),> 100 µM (inactive),,> 100 µM (inactive),> 100 µM (inactive),> 100 µM (inactive),36 µM (inactive),,,
O=C1C(c2ccc(Br)cc2)=[N+]([O-])c2ccccc21,20.9 µM (inactive),17.1 µM (inactive),11.7 µM (inactive),5.16 µM (inactive),> 10 µM (inactive),20.2 µM (inactive),2.14 µM (inactive),15.9 µM (inactive),20.5 µM (inactive),,16.3 µM (inactive),4.79 µM (inactive),15.5 µM (inactive),21 µM (inactive),10.2 µM (inactive),14.3 µM (inactive),7.21 µM (inactive),,,
COC(=O)c1ccc(N/C=C(/C#N)c2ccsc2)cc1,15.4 µM (inactive),11.1 µM (inactive),22.2 µM (inactive),12.8 µM (inactive),7.18 µM (inactive),15.6 µM (inactive),> 100 µM (inactive),16.8 µM (inactive),15.9 µM (inactive),,,> 100 µM (inactive),> 10 µM (inactive),12.2 µM (inactive),> 100 µM (inactive),14.4 µM (inactive),,,,
CC(=O)OC1(C#N)CC2OC1C1C2N1C(=O)c1ccccc1 (stereo not given),> 100 µM (inactive),> 100 µM (inactive),> 100 µM (inactive),> 100 µM (inactive),,> 100 µM (inactive),> 100 µM (inactive),> 100 µM (inactive),> 100 µM (inactive),> 100 µM (inactive),> 100 µM (inactive),> 100 µM (inactive),> 100 µM (inactive),> 100 µM (inactive),> 100 µM (inactive),> 100 µM (inactive),> 100 µM (inactive),,,
c1ccc2c(c1)n1nnnc1c1nnnn21,> 100 µM (inactive),83.4 µM (inactive),> 100 µM (inactive),> 100 µM (inactive),77.8 µM (inactive),> 100 µM (inactive),,> 100 µM (inactive),78.9 µM (inactive),32.4 µM (inactive),> 100 µM (inactive),> 100 µM (inactive),> 100 µM (inactive),> 100 µM (inactive),> 100 µM (inactive),> 100 µM (inactive),18.6 µM (inactive),,,
CCOC(=O)N1CCN(c2c(N)nc(C)nc2O)CC1,> 100 µM (inactive),> 100 µM (inactive),> 100 µM (inactive),,> 100 µM (inactive),> 100 µM (inactive),> 100 µM (inactive),> 100 µM (inactive),> 100 µM (inactive),> 100 µM (inactive),> 100 µM (inactive),> 100 µM (inactive),> 100 µM (inactive),> 100 µM (inactive),> 100 µM (inactive),> 100 µM (inactive),> 100 µM (inactive),> 100 µM (inactive),> 100 µM (inactive),> 100 µM (inactive)
CC(C(=O)N1C(=O)N(C(=O)C(C)C(O)c2ccccc2)C2CCCCC21)C(O)c1ccccc1 (stereo not given),44.3 µM (inactive),> 100 µM (inactive),30.3 µM (inactive),44.1 µM (inactive),34.9 µM (inactive),> 100 µM (inactive),27.7 µM (inactive),> 100 µM (inactive),,57.4 µM (inactive),79.8 µM (inactive),26.2 µM (inactive),> 100 µM (inactive),92.7 µM (inactive),> 10 µM (inactive),34.6 µM (inactive),,,,
Cc1cc(NCCCCCCCNc2cc(C)nc3cc(N)ccc23)c2ccc(N)cc2n1,29.9 µM (inactive),> 100 µM (inactive),78.3 µM (inactive),26.5 µM (inactive),10.3 µM (inactive),32.7 µM (inactive),3.1 µM (inactive),> 100 µM (inactive),27 µM (inactive),72.3 µM (inactive),43 µM (inactive),33.4 µM (inactive),10.5 µM (inactive),47.2 µM (inactive),1.37 µM (inactive),> 100 µM (inactive),,,,
O=c1nc2occc2cn1C1CC(O)C(CO)O1 (stereo not given),> 100 µM (inactive),> 100 µM (inactive),,> 100 µM (inactive),> 100 µM (inactive),> 100 µM (inactive),> 100 µM (inactive),> 100 µM (inactive),> 100 µM (inactive),> 100 µM (inactive),> 100 µM (inactive),> 100 µM (inactive),> 100 µM (inactive),> 100 µM (inactive),> 100 µM (inactive),> 100 µM (inactive),> 100 µM (inactive),,,
CC1=NN(C(=O)CC(=O)Nc2ccccc2C)C(=O)C1/N=N/c1ccc(C(=O)O)cc1 (stereo not given),> 100 µM (inactive),> 100 µM (inactive),> 100 µM (inactive),,> 100 µM (inactive),> 100 µM (inactive),> 100 µM (inactive),> 100 µM (inactive),> 100 µM (inactive),> 100 µM (inactive),> 100 µM (inactive),88.1 µM (inactive),> 100 µM (inactive),> 100 µM (inactive),> 100 µM (inactive),48.6 µM (inactive),20.5 µM (inactive),> 100 µM (inactive),> 100 µM (inactive),44.1 µM (inactive)
CC1=NN(c2cccc(Cl)c2)C2(C1)SCC(=O)N2c1nc2ccccc2s1 (stereo not given),31.2 µM (inactive),21.8 µM (inactive),22.3 µM (inactive),,23.2 µM (inactive),32.8 µM (inactive),22.2 µM (inactive),30.2 µM (inactive),22.8 µM (inactive),34 µM (inactive),26.7 µM (inactive),16.1 µM (inactive),22.1 µM (inactive),36 µM (inactive),18.2 µM (inactive),21.1 µM (inactive),32.8 µM (inactive),33 µM (inactive),25.6 µM (inactive),19.8 µM (inactive)
Cc1cc(C)c(N)c(C)c1N,> 100 µM (inactive),> 100 µM (inactive),> 100 µM (inactive),> 100 µM (inactive),> 100 µM (inactive),> 100 µM (inactive),> 100 µM (inactive),> 100 µM (inactive),> 100 µM (inactive),,> 100 µM (inactive),> 100 µM (inactive),> 100 µM (inactive),> 100 µM (inactive),> 100 µM (inactive),> 100 µM (inactive),> 100 µM (inactive),,,
CCSSCS(C)(=O)=O,36.7 µM (inactive),5.82 µM (inactive),39.1 µM (inactive),,59.3 µM (inactive),58.5 µM (inactive),11.9 µM (inactive),36.3 µM (inactive),8.81 µM (inactive),17.8 µM (inactive),20.4 µM (inactive),0.975 µM (active),24.8 µM (inactive),42.7 µM (inactive),3.88 µM (inactive),11 µM (inactive),16.9 µM (inactive),10.5 µM (inactive),22.5 µM (inactive),35.2 µM (inactive)
CN(C)CCn1c(=O)c2ccc3c4c(nn3CCN(C)C)c3cc([N+](=O)[O-])ccc3n(c1=O)c24,0.0264 µM (active),< 0.0124 µM (active),0.133 µM (active),,0.0585 µM (active),0.51 µM (active),0.09 µM (active),0.212 µM (active),0.394 µM (active),0.0189 µM (active),0.222 µM (active),< 0.01 µM (active),< 0.0207 µM (active),0.0438 µM (active),0.0394 µM (active),0.0661 µM (active),0.8 µM (active),0.0724 µM (active),0.0667 µM (active),0.249 µM (active)
O=C1/C(=C/c2ccc(O)cc2)CC/C1=C\c1ccc(O)cc1,> 95.1 µM (inactive),> 41 µM (inactive),> 100 µM (inactive),,> 96.4 µM (inactive),> 100 µM (inactive),0.458 µM (active),> 100 µM (inactive),22.6 µM (inactive),> 64.3 µM (inactive),> 100 µM (inactive),7.14 µM (inactive),> 64.6 µM (inactive),> 87.1 µM (inactive),> 100 µM (inactive),51.2 µM (inactive),> 68.9 µM (inactive),> 100 µM (inactive),> 100 µM (inactive),> 95.1 µM (inactive)
